Experimental data published in the OligoGym collection.
Bases are written 5' to 3'; sugars and linkages follow in the same order, as letters with counts (s phosphorothioate, o phosphodiester; PS: all linkages phosphorothioate). C may stand for cytosine or 5-methylcytosine; the collection does not tell. l = locked nucleic acid (LNA); d = 2'-deoxy (DNA)

target: HIF1A; assay: HeLa, 100 nM transfected, 24 h, mean of 3; conditions: ASO

First: GTTACTGCCTTCTTAC (sugars l2 d9 l1 d1 l3, PS)
Second: TGGCAAGCATCCTGTA (sugars l4 d8 l2 d1 l1, PS)
The caspase activation (% of PBS control) of the first is lower: 157 for the first, 425 for the second.

Compared with “TGGCAAGCATCCTGTA (sugars llldldddddddldll, PS)”, “GTTACTGCCTTCTTAC (sugars lddldddddddldldl, PS)” is lower in caspase activation (% of PBS control): 367 for the first, 135 for the second.

Compared with “TGGCAAGCATCCT (sugars l1 d9 l1 d1 l1, PS)”, “GCAAGCATCCTGT (sugars ldllddddddldl, PS)” is lower in caspase activation (% of PBS control): 242 for the first, 176 for the second.

Compared with TTACTGCCTTCTT (sugars l2 d9 l2, PS), “TGGCAAGCATCCTGTA (sugars l2 d1 l1 d8 l4, PS)” is higher in caspase activation (% of PBS control): 148 for the first, 393 for the second.

First: GTTACTGCCTTCTTAC (sugars l1 d1 l3 d9 l2, PS)
Second: GCAAGCATCCTGT (sugars l1 d2 l1 d6 l3, PS)
The caspase activation (% of PBS control) of the first is higher: 292 for the first, 154 for the second.

First: TGGCAAGCATCCTGTA (sugars l1 d11 l2 d1 l1, PS)
Second: TGGCAAGCATCCTGTA (sugars l1 d2 l2 d6 l5, PS)
The caspase activation (% of PBS control) of the first is lower: 231 for the first, 366 for the second.

First: TGGCAAGCATCCTGTA (sugars l2 d1 l2 d8 l3, PS)
Second: GTTACTGCCTTCTTAC (sugars ldldlddddddddldl, PS)
The caspase activation (% of PBS control) of the first is higher: 407 for the first, 201 for the second.

Compared with “TGGCAAGCATCCTGTA (sugars ldllldddddddlddl, PS)”, “TGGCAAGCATCCTGTA (sugars ldddlddddddldldl, PS)” is lower in caspase activation (% of PBS control): 419 for the first, 213 for the second.

Going from “GTTACTGCCTTCTTAC (sugars lddllddddddlldll, PS)” to TGGCAAGCATCCTGTA (sugars l1 d10 l5, PS), the caspase activation (% of PBS control) rises from 196 to 480.

First: TGGCAAGCATCCTGTA (sugars l1 d2 l1 d11 l1, PS)
Second: TGGCAAGCATCCTGTA (sugars lllldddddddldldl, PS)
The caspase activation (% of PBS control) of the first is lower: 178 for the first, 372 for the second.

First: GTTACTGCCTTCTTAC (sugars llldlddddddddldl, PS)
Second: TTACTGCCTTCTT (sugars lddlddddddldl, PS)
The caspase activation (% of PBS control) of the first is higher: 271 for the first, 127 for the second.

First: TGGCAAGCATCCTGTA (sugars l5 d9 l2, PS)
Second: GTTACTGCCTTCTTAC (sugars l4 d7 l2 d2 l1, PS)
The caspase activation (% of PBS control) of the first is higher: 402 for the first, 264 for the second.

Going from “TGGCAAGCATCCTGTA (sugars l1 d1 l1 d9 l4, PS)” to “GTTACTGCCTTCTTAC (sugars ldldddddddddlldl, PS)”, the caspase activation (% of PBS control) falls from 379 to 165.

Going from TGGCAAGCATCCT (sugars l2 d10 l1, PS) to “GTTACTGCCTTCTTAC (sugars ldddldddddddldll, PS)”, the caspase activation (% of PBS control) falls from 364 to 135.

First: ACTGCCTTCTTAC (sugars l4 d6 l1 d1 l1, PS)
Second: GCAAGCATCCTGT (sugars l1 d1 l2 d8 l1, PS)
The caspase activation (% of PBS control) of the first is higher: 393 for the first, 191 for the second.

Compared with “TGGCAAGCATCCTGTA (sugars ldlldddddddlddll, PS)”, “GTTACTGCCTTCTTAC (sugars l5 d7 l1 d1 l2, PS)” is higher in caspase activation (% of PBS control): 306 for the first, 454 for the second.

Compared with “TTACTGCCTTCTT (sugars l1 d1 l1 d7 l3, PS)”, “GCAAGCATCCTGT (sugars l4 d6 l1 d1 l1, PS)” is higher in caspase activation (% of PBS control): 183 for the first, 305 for the second.

Compared with “GTTACTGCCTTCTTAC (sugars ldlllddddddldlll, PS)”, “TGGCAAGCATCCT (sugars ldldddddddldl, PS)” is lower in caspase activation (% of PBS control): 427 for the first, 170 for the second.

First: TGGCAAGCATCCTGTA (sugars l5 d6 l2 d1 l2, PS)
Second: TGGCAAGCATCCTGTA (sugars l2 d9 l1 d1 l3, PS)
The caspase activation (% of PBS control) of the first is lower: 367 for the first, 369 for the second.

First: TGGCAAGCATCCTGTA (sugars l5 d7 l2 d1 l1, PS)
Second: GGCAAGCATCCTG (sugars l1 d9 l3, PS)
The caspase activation (% of PBS control) of the first is lower: 381 for the first, 468 for the second.

Going from “TTACTGCCTTCTT (sugars l2 d1 l1 d8 l1, PS)” to “GTTACTGCCTTCT (sugars l4 d6 l1 d1 l1, PS)”, the caspase activation (% of PBS control) rises from 147 to 221.

Going from “TGGCAAGCATCCTGTA (sugars llldlddddddldlll, PS)” to “GTTACTGCCTTCTTAC (sugars l1 d12 l1 d1 l1, PS)”, the caspase activation (% of PBS control) falls from 428 to 103.

First: TGGCAAGCATCCTGTA (sugars lllddddddddldldl, PS)
Second: GTTACTGCCTTCTTAC (sugars l4 d8 l1 d1 l2, PS)
The caspase activation (% of PBS control) of the first is higher: 385 for the first, 218 for the second.

Compared with “TGGCAAGCATCCTGTA (sugars ldlllddddddldldl, PS)”, “TGGCAAGCATCCTGTA (sugars l1 d10 l1 d1 l3, PS)” is lower in caspase activation (% of PBS control): 455 for the first, 348 for the second.

First: GGCAAGCATCCTG (sugars l1 d1 l2 d7 l2, PS)
Second: GTTACTGCCTTCTTAC (sugars l2 d1 l1 d11 l1, PS)
The caspase activation (% of PBS control) of the first is higher: 688 for the first, 110 for the second.

Compared with “GGCAAGCATCCTG (sugars lldlddddddldl, PS)”, “GTTACTGCCTTCTTAC (sugars ldllddddddddldll, PS)” is lower in caspase activation (% of PBS control): 334 for the first, 181 for the second.

Compared with “GTTACTGCCTTCTTAC (sugars ldddlddddddllldl, PS)”, “TGGCAAGCATCCTGTA (sugars ldldddddddddlddl, PS)” is lower in caspase activation (% of PBS control): 261 for the first, 172 for the second.

Compared with “TGGCAAGCATCCTGTA (sugars ldldlddddddlddll, PS)”, “TGGCAAGCATCCTGTA (sugars lldlddddddddldll, PS)” is higher in caspase activation (% of PBS control): 178 for the first, 502 for the second.

First: GGCAAGCATCCTG (sugars l3 d9 l1, PS)
Second: TGGCAAGCATCCTGTA (sugars lldlddddddddlddl, PS)
The caspase activation (% of PBS control) of the first is lower: 496 for the first, 604 for the second.

Going from CAAGCATCCTGTA (sugars l1 d10 l2, PS) to “TACTGCCTTCTTA (sugars l2 d1 l1 d6 l3, PS)”, the caspase activation (% of PBS control) rises from 111 to 427.

Going from “GTTACTGCCTTCT (sugars l1 d9 l1 d1 l1, PS)” to “TGGCAAGCATCCTGTA (sugars ldddlddddddddldl, PS)”, the caspase activation (% of PBS control) rises from 104 to 139.

Going from “GTTACTGCCTTCTTAC (sugars lllddddddddldldl, PS)” to “GGCAAGCATCCTG (sugars l1 d1 l1 d8 l2, PS)”, the caspase activation (% of PBS control) rises from 233 to 685.

Going from “CAAGCATCCTGTA (sugars l1 d2 l1 d7 l2, PS)” to “TACTGCCTTCTTA (sugars l1 d1 l2 d6 l3, PS)”, the caspase activation (% of PBS control) rises from 107 to 585.

First: GGCAAGCATCCTG (sugars l1 d2 l1 d8 l1, PS)
Second: TGGCAAGCATCCTGTA (sugars l1 d1 l3 d9 l2, PS)
The caspase activation (% of PBS control) of the first is lower: 205 for the first, 463 for the second.

First: GGCAAGCATCCTG (sugars l2 d1 l1 d6 l3, PS)
Second: TGGCAAGCATCCTGTA (sugars l3 d1 l1 d8 l3, PS)
The caspase activation (% of PBS control) of the first is higher: 502 for the first, 413 for the second.

First: CAAGCATCCTGTA (sugars l1 d1 l1 d9 l1, PS)
Second: GTTACTGCCTTCT (sugars l2 d10 l1, PS)
The caspase activation (% of PBS control) of the first is higher: 121 for the first, 109 for the second.

Going from “GTTACTGCCTTCTTAC (sugars llldlddddddllldl, PS)” to “GTTACTGCCTTCT (sugars lldlddddddldl, PS)”, the caspase activation (% of PBS control) falls from 485 to 105.

Going from “TGGCAAGCATCCTGTA (sugars lddllddddddlddll, PS)” to “GTTACTGCCTTCTTAC (sugars ldllldddddddldll, PS)”, the caspase activation (% of PBS control) rises from 257 to 387.

First: GTTACTGCCTTCTTAC (sugars ldlldddddddllddl, PS)
Second: GTTACTGCCTTCTTAC (sugars l5 d6 l2 d1 l2, PS)
The caspase activation (% of PBS control) of the first is lower: 255 for the first, 488 for the second.

First: CAAGCATCCTGTA (sugars l1 d9 l1 d1 l1, PS)
Second: TTACTGCCTTCTT (sugars l4 d7 l2, PS)
The caspase activation (% of PBS control) of the first is lower: 92.1 for the first, 337 for the second.

Going from “TGGCAAGCATCCTGTA (sugars ldldlddddddldddl, PS)” to TGGCAAGCATCCTGTA (sugars l1 d12 l3, PS), the caspase activation (% of PBS control) rises from 179 to 217.

Going from “GTTACTGCCTTCTTAC (sugars l1 d1 l2 d7 l5, PS)” to TGGCAAGCATCCT (sugars l3 d9 l1, PS), the caspase activation (% of PBS control) falls from 361 to 287.

Compared with “TGGCAAGCATCCTGTA (sugars l1 d1 l3 d6 l5, PS)”, “TGGCAAGCATCCTGTA (sugars ldddldddddddldll, PS)” is lower in caspase activation (% of PBS control): 482 for the first, 245 for the second.

Going from “TGGCAAGCATCCTGTA (sugars llddlddddddlddll, PS)” to “TGGCAAGCATCCTGTA (sugars ldddlddddddllddl, PS)”, the caspase activation (% of PBS control) falls from 455 to 246.

First: TGGCAAGCATCCTGTA (sugars ldddlddddddldddl, PS)
Second: GTTACTGCCTTCTTAC (sugars l1 d10 l1 d2 l2, PS)
The caspase activation (% of PBS control) of the first is higher: 159 for the first, 102 for the second.

Compared with “TGGCAAGCATCCTGTA (sugars llddldddddddlldl, PS)”, GCAAGCATCCTGT (sugars l4 d8 l1, PS) is higher in caspase activation (% of PBS control): 341 for the first, 344 for the second.

Going from GTTACTGCCTTCT (sugars l3 d8 l2, PS) to “TGGCAAGCATCCTGTA (sugars lldldddddddddldl, PS)”, the caspase activation (% of PBS control) rises from 164 to 522.

First: GTTACTGCCTTCTTAC (sugars l3 d1 l1 d10 l1, PS)
Second: GTTACTGCCTTCTTAC (sugars l3 d11 l2, PS)
The caspase activation (% of PBS control) of the first is higher: 185 for the first, 136 for the second.

Compared with GTTACTGCCTTCTTAC (sugars l1 d12 l3, PS), “GTTACTGCCTTCTTAC (sugars l1 d2 l1 d8 l4, PS)” is higher in caspase activation (% of PBS control): 100 for the first, 175 for the second.

First: TTACTGCCTTCTT (sugars l4 d6 l1 d1 l1, PS)
Second: GTTACTGCCTTCTTAC (sugars lddldddddddldlll, PS)
The caspase activation (% of PBS control) of the first is higher: 308 for the first, 154 for the second.
